Source: US20250215029A1 (Recludix Pharma, Inc., priority 2022, published 2025)

Biological target: T1, pY705-STAT3 in PBMC (Homo sapiens, UniProt P40763)
T1 construct: Cryopreserved Peripheral Blood Mononuclear Cells (PBMC) are from AllCells; host or cells: cryopreserved PBMC
Assay: MSD-pSTAT-PBMC Assay (pSTAT3, IL-6 stimulated)
Assay type: cell-based
Details: PBMC, compound 3 hrs, then 10 ng/mL IL-6 for 10 min; Table 115; read-out: STAT3
From the text: Cryopreserved Peripheral Blood Mononuclear Cells (PBMC) are from AllCells. Recombinant Human IL-4 and IL-6 are from Peprotech. Mouse monoclonal anti-STAT3 antibody, rabbit monoclonal anti-pY705-STAT3 antibody, rabbit monoclonal Anti-pY641-STAT6 antibody, and lysis buffer are from Cell Signaling Technology (CST). Mouse monoclonal anti-STAT6 antibody is from BioLegend. Assay plates, blocker, and anti-rabbit secondary antibody are from Meso Scale Discovery (MSD).
Cyropreserved PBMCs were thawed out and allowed to recover overnight in IMDM+10% heat-inactivated FBS prior to plating 50,000 (STAT3) or 25,000 (STAT6) cells per well in 96-well U-bottom tissue culture plates. Cells were treated with compound for 3 hrs, then stimulated with 10 ng/mL IL-6 (STAT3) or 1 ng/mL IL-4 (STAT6) for 10 min. Cells were then spun down and washed with ice-cold PBS prior to lysing the cell pellet with 1× lysis buffer (CST) with 1× HALT protease and phosphatase inhibitor cocktail (Thermo). Lysates were transferred to and incubated overnight at 4° C. with shaking in QuickPlex 96-well high bind assay plates (MSD) pre-coated overnight with 30 μL per well of 0.6 μg/mL mouse monoclonal anti-STAT3 antibody (STAT3) or 2 μg/mL mouse monoclonal anti-STAT6 antibody (STAT6) in 1× PBS, and pre-blocked for 1 hour with 3% Blocker-A (MSD). Captured protein in the assay plates were then washed and probed with 25 μL per well of […] rabbit monoclonal anti-pY705-STAT3 antibody (STAT3) or 0.18 μg/ml rabbit monoclonal Anti-pY641-STAT6 antibody (STAT6) in 1% Blocker-A for 1 hour at room temperature with shaking, then washed and probed with 25 ul per well of 1 ug/ml Sulfo-TAG Labeled Goat Anti-Rabbit Antibody (MSD) in 1% Blocker-A for 1 hour at room temperature with shaking. Assay plates were then washed and 150 μL of 1× Read Buffer-T (MSD) was added to each well prior to reading on an SQ120 MSD Plate Reader. Assay signal from each sample was subtracted by the signal from unstimulated control wells and normalized to DMSO control wells. IC50 values were calculated using Graph Pad Prism Dose-Response Nonlinear Regression with variable slope. For both pSTAT3 and pSTAT6 A=≤100 nM; B 100-1000 nM; C=>1000-3000 nM; D=>3 μM; and NT=Not Tested.

T1 sequence (P40763 whole entry): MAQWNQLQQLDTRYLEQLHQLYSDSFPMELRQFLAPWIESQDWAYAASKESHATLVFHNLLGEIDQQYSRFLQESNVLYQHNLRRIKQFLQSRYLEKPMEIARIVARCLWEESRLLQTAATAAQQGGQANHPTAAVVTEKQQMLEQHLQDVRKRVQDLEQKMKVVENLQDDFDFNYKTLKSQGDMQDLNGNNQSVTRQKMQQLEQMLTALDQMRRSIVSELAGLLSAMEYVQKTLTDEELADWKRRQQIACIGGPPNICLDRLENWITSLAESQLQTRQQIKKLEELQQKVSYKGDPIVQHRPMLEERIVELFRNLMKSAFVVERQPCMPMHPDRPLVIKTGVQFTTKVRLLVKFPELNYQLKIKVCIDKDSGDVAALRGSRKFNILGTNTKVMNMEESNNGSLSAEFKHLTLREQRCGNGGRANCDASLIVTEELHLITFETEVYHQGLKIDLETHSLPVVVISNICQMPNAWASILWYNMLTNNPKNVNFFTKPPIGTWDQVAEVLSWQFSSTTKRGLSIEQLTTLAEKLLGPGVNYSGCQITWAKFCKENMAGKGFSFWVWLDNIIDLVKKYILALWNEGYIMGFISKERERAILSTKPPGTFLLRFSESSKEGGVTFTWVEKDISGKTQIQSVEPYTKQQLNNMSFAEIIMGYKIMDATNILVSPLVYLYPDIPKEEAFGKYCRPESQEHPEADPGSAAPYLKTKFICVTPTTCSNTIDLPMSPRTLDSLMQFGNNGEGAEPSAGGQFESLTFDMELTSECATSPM

SMILES | IC50 [nM]
CCCOC(=O)[C@H](C)N[P@](=O)(Oc1ccccc1)[C@@H](F)c1ccc2sc(C(=O)N[C@H]3CCC[C@H]4CC[C@@H](C(=O)N5CC(c6cnccc6N6CCOCC6)C5)N4C3=O)cc2c1 (single isomer, unassigned) [Compound 1047] | 100 to 1000
CCCOC(=O)[C@H](C)N[P@](=O)(Oc1ccccc1)[C@H](F)c1ccc2sc(C(=O)N[C@H]3C[C@@H](C)C[C@H]4CC[C@@H](C(=O)N5CC(c6cnccc6C)C5)N4C3=O)cc2c1 (single isomer, unassigned) [Compound 1048] | < 100
CCCOC(=O)[C@H](C)N[P@@](=O)(Oc1ccccc1)[C@H](F)c1ccc2sc(C(=O)N[C@H]3CCC[C@H]4CC[C@@H](C(=O)N5CC(c6cnccc6C)C5)N4C3=O)cc2c1 (single isomer, unassigned) [Compound 1049] | < 100
COc1ccncc1C1CN(C(=O)[C@@H]2CC[C@@H]3CCC[C@H](NC(=O)c4cc5cc([C@H](F)[P@@](=O)(N[C@@H](C)C(=O)OCc6ccccc6)Oc6ccccc6)ccc5s4)C(=O)N32)C1 (single isomer, unassigned) [Compound 1050] | 100 to 1000
COc1ccncc1C1CN(C(=O)[C@@H]2CC[C@@H]3CCC[C@H](NC(=O)c4cc5cc([C@H](F)[P@@](=O)(N[C@@H](C)C(=O)OCc6ccccc6)Oc6ccccc6)ccc5s4)C(=O)N32)C1 (single isomer, unassigned) [Compound 1051] | 100 to 1000
COc1ccncc1C1CN(C(=O)[C@@H]2CC[C@@H]3CCC[C@H](NC(=O)c4cc5cc([C@H](F)[P@@](=O)(N[C@@H](C)C(=O)OC(C)C)Oc6ccccc6)ccc5s4)C(=O)N32)C1 (single isomer, unassigned) [Compound 1052] | 100 to 1000
COc1ccncc1C1CN(C(=O)[C@@H]2CC[C@@H]3CCC[C@H](NC(=O)c4cc5cc([C@@H](F)[P@@](=O)(N[C@@H](C)C(=O)OC(C)C)Oc6ccccc6)ccc5s4)C(=O)N32)C1 (single isomer, unassigned) [Compound 1053] | < 100
COc1ccncc1C1CN(C(=O)[C@@H]2CC[C@@H]3CCC[C@H](NC(=O)c4cc5cc([C@@H](F)[P@](=O)(N[C@@H](C)C(=O)OCc6ccccc6)Oc6ccccc6)ccc5s4)C(=O)N32)C1 (single isomer, unassigned) [Compound 1054] | < 100
COc1ccncc1C1CN(C(=O)[C@@H]2CC[C@@H]3CCC[C@H](NC(=O)c4cc5cc([C@@H](F)[P@](=O)(N[C@@H](C)C(=O)OCC(C)(C)C)Oc6ccccc6)ccc5s4)C(=O)N32)C1 (single isomer, unassigned) [Compound 1056] | < 100
COc1ccncc1C1CN(C(=O)[C@@H]2CC[C@@H]3CCC[C@H](NC(=O)c4cc5cc([C@@H](F)[P@](=O)(N[C@@H](C)C(=O)OCC(C)(C)C)Oc6ccccc6)ccc5s4)C(=O)N32)C1 (single isomer, unassigned) [Compound 1057] | < 100
CCCOC(=O)[C@H](C)N[P@](=O)(Oc1ccccc1)[C@@H](F)c1ccc2sc(C(=O)N[C@H]3C[C@@H](C)C[C@H]4CC[C@@H](C(=O)N5CC(c6cnccc6OC)C5)N4C3=O)cc2c1 (single isomer, unassigned) [Compound 1058] | < 100
CCCOC(=O)[C@H](C)N[P@](=O)(Oc1ccccc1)[C@@H](F)c1ccc2sc(C(=O)N[C@H]3C[C@@H](C)C[C@H]4CC[C@@H](C(=O)N5CC(c6cnccc6OC)C5)N4C3=O)cc2c1 (single isomer, unassigned) [Compound 1059] | < 100
CCCOC(=O)[C@H](C)N[P@](=O)(Oc1ccccc1)[C@H](F)c1ccc2sc(C(=O)N[C@H]3CCC[C@H]4CC[C@@H](C(=O)N5CC(c6cnccc6N(C)C)C5)N4C3=O)cc2c1 (stereo in doubt) [Compound 953] | < 100
CC(C)OC(=O)[C@H](C)NP(=O)(Oc1ccccc1)C(F)(F)c1ccc2sc(C(=O)N[C@H]3CCC[C@H]4CC[C@@H](C(=O)N5CC(c6cccnc6)C5)N4C3=O)cc2c1 (stereo partly drawn) [Compound 248, isopropyl ((difluoro(2-(((3S,6S,9aS)-5-oxo-3-(3-(pyridin-3-yl)azetidine-1-carbonyl)octahydro-1H-pyrrolo[1,2-a]azepin-6-yl)carbamoyl)benzo [b]thiophen-5-yl)methyl)(phenoxy)phosphoryl)-L-alaninate] | > 3000
CCCOC(=O)[C@H](C)NP(=O)(Cc1ccc2sc(C(=O)N[C@H]3CCC[C@H]4CC[C@@H](C(=O)N5CC(c6cccnc6)C5)N4C3=O)cc2c1)Oc1ccccc1 (stereo partly drawn) [Compound 250, propyl (((2-(((3S,6S,9aS)-5-oxo-3-(3-(pyridin-3-yl)azetidine-1-carbonyl)octahydro-1H-pyrrolo[1,2-a]azepin-6-yl)carbamoyl)benzo [b]thiophen-5-yl)methyl)(phenoxy)phosphoryl)-L-alaninate] | < 100
CCCOC(=O)[C@H](C)NP(=O)(Cc1ccc2sc(C(=O)N[C@H]3CC(C)C[C@H]4CC[C@@H](C(=O)N5CC(c6cnccc6C)C5)N4C3=O)cc2c1)Oc1ccccc1 (stereo partly drawn) [Compound 251, propyl (((2-(((3S,6S,9aR)-8-methyl-3-(3-(4-methylpyridin-3-yl)azetidine-1-carbonyl)-5-oxooctahydro-1H-pyrrolo[1,2-a]azepin-6-yl)carbamoyl)benzo [b]thiophen-5-yl)methyl)(phenoxy)phosphoryl)-L-alaninate] | < 100
CCCCOC(=O)[C@H](C)NP(=O)(Oc1ccccc1)C(F)(F)c1ccc2sc(C(=O)N[C@H]3CCC[C@H]4CC[C@@H](C(=O)N5CC(c6cccnc6)C5)N4C3=O)cc2c1 (stereo partly drawn) [Compound 254, butyl ((difluoro(2-(((3S,6S,9aS)-5-oxo-3-(3-(pyridin-3-yl)azetidine-1-carbonyl)octahydro-1H-pyrrolo[1,2-a]azepin-6-yl)carbamoyl)benzo [b]thiophen-5-yl)methyl)(phenoxy)phosphoryl)-L-alaninate] | 100 to 1000
C[C@H](NP(=O)(Cc1ccc2sc(C(=O)N[C@H]3CCC[C@H]4CC[C@@H](C(=O)N5CC(c6cccnc6)C5)N4C3=O)cc2c1)Oc1ccccc1)C(=O)OCC(C)(C)C (stereo partly drawn) [Compound 256, neopentyl (((2-(((3S,6S,9aS)-5-oxo-3-(3-(pyridin-3-yl)azetidine-1-carbonyl)octahydro-1H-pyrrolo[1,2-a]azepin-6-yl)carbamoyl)benzo [b]thiophen-5-yl)methyl)(phenoxy)phosphoryl)-L-alaninate] | < 100
CCCOC(=O)[C@H](C)NP(=O)(Cc1ccc2sc(C(=O)N[C@H]3CCC[C@H]4CC[C@@H](C(=O)N5CC(c6cnccc6CC)C5)N4C3=O)cc2c1)Oc1ccccc1 (stereo partly drawn) [Compound 257, propyl (((2-(((3S,6S,9aS)-3-(3-(4-ethylpyridin-3-yl)azetidine-1-carbonyl)-5-oxooctahydro-1H-pyrrolo[1,2-a]azepin-6-yl)carbamoyl)benzo [b]thiophen-5-yl)methyl)(phenoxy)phosphoryl)-L-alaninate] | < 100
CCC(CC)COC(=O)[C@H](C)NP(=O)(Cc1ccc2sc(C(=O)N[C@H]3CCC[C@H]4CC[C@@H](C(=O)N5CC(c6cccnc6)C5)N4C3=O)cc2c1)Oc1ccccc1 (stereo partly drawn) [Compound 258, 2-ethylbutyl (((2-(((3S,6S,9aS)-5-oxo-3-(3-(pyridin-3-yl)azetidine-1-carbonyl)octahydro-1H-pyrrolo[1,2-a]azepin-6-yl)carbamoyl)benzo [b]thiophen-5-yl)methyl)(phenoxy)phosphoryl)-L-alaninate] | < 100
